Data on two molecules can be found in US10329352B2, “Pyrrolobenzodiazepines and targeted conjugates” (priority 2011, dated 2019).

Experiment in all cases: Free drug in vitro cytotoxicity (resazurin)
Format in all cases: cell-based
(Alamar Blue is a resazurin reagent that responds to reducing activity.)

Experiment [1] concerns 786-O. The protocol: (§1) Cells as detailed below were collected and plated in 96 well black-sided plates at a density of 10,000 cells/well in 150 μL of medium. […] Resazurin (0.25 mM, 50 μL, Sigma, St. Louis, Mo.) in medium was added and incubation was continued for 4 hours. The plates were read on a Fusion HT microplate reader (Packard, Meriden, Conn.) using an excitation wavelength of 525 nm and an emission wavelength of 590 nm. Data from all assays were reduced using GraphPad Prism Version 4 for Windows (GraphPad Software, San Diego, Calif.). The IC50 concentrations compared to untreated control cells were determined using a 4 parameter curve fits.

Experiment [2] has as its system Caki-1. As for the experimental part: as §1
Experiment [3] deals with HEL9217. As for the experimental part:
as §1

Experiment [4] concerns HL60. The protocol: as §1

With `COC(=O)c1ccc(C2=CN3C(=O)c4cc(OC)c(OCCCCCOc5cc6c(cc5OC)C(=O)N5C=C(c7ccc(N)cc7)C[C@H]5C=N6)cc4N=C[C@@H]3C2)cc1` [compound 4, (S)-2-(4-aminophenyl)-7-methoxy-8-(5-((S)-7-methoxy-2-(4-methyloxycarbonylphenyl)-5-oxo-5,11a-dihydro-1H-pyrrolo[2,1-c][1,4]benzodiazepin-8-yloxy)pentyloxy)-1H-pyrrolo[2,1-c][1,4]benzodiazepine-5(11aH)-one], the IC50 in experiment [1] (Homo sapiens, 786-0, following 48 hours treatment) worked out at 0.05 nM; in experiment [2] (Homo sapiens, CAKI-1, following 48 hours treatment) it was 0.02 nM; in experiment [3] (Homo sapiens, HEL 92.1.7, following 48 hours treatment) it was 0.008 nM; in experiment [4] (Homo sapiens, HL-60, following 48 hours treatment), 0.008 nM.
Turning to `COc1cc2c(cc1OCCCOc1cc3c(cc1OC)C(=O)N1C=C(c4ccc(O)cc4)C[C@H]1C=N3)N=C[C@@H]1CC(c3ccc(N)cc3)=CN1C2=O` [compound 14], the IC50 in experiment [1] (following 48 hours treatment) stood at 0.2 nM; in experiment [2] (following 48 hours treatment) it was 0.4 nM; in experiment [3] (following 48 hours treatment), 0.05 nM; in experiment [4] (following 48 hours treatment), 0.03 nM.

In general, IC50 refers to the concentration at which inhibition is half-maximal.
